Laboratory results from PMC7395068, “The evolution of strategies to minimise the risk of human drug-induced liver injury (DILI) in drug discovery and development” (Archives of Toxicology, 2020).
Where two headings read alike, the source gives them in different places.

How the values were obtained:
PHH = conditions: cited from earlier work
[1] = cited from earlier work
HepaRG spheroids = assay: Combined HCI (HCS) and cellular ATP 3D assay in HepaRG spheroids; conditions: for AC50: Homo sapiens
[2] = plasma free fraction; cited from earlier work
rBsep = conditions: In vitro Assay; ref Dawson 2012; cited from earlier work
[3] = Plasma free fraction (fu) and unbound Cmax (Cmax,u); format: in vitro ADME, human; conditions: unbound plasma Cmax
PHH spheroids = conditions: cited from earlier work
[4] = read-out: Human plasma Cmax; total plasma Cmax.tot, median of 9 literature references; cited from earlier work
[5] = system: THLE-Null and THLE-3A4 cells; conditions: In vitro Assay; ref Gustafsson 2014; cited from earlier work
hLiMTs [6] = assay: Combined HCI (HCS) and cellular ATP 3D assay in hLiMTs; conditions: for AC50: Homo sapiens
[7] = system: isolated mouse liver mitochondria; conditions: In vitro Assay; ref Porceddu 2012; cited from earlier work
[8] = system: HepG2 C3A spheroid, BSEP, Glu/Gal in HepG2 cells, bioactivation; conditions: cited from earlier work
[9] = cited from earlier work; remark: listed apart in the source
HepG2 cells = conditions: cited from earlier work
hLiMTs [10] = conditions: cited from earlier work
[11] = In vitro Assay, ref Proctor 2017
[12] = Microtissue model structural based (HCI), combined HCS and ATP, MEC < 25 × Cmax.tot cut-off

Clc1ccccc1CN1CCc2sccc2C1 [ticlopidine]
PHH/100uM, Proctor (2017) (PHH; 2D PHH, ATP, IC50 threshold 100 µM, ref Proctor et al. 2017): -VE
PHH ATP <100uM (PHH; [11]): -VE
Assigned DILI category ([1]; Chen et al. 2016 or literature alignment, ref Chen et al. 2016): 3
In vivo DILI ([1]; […]): +VE
In vivo DILI ([1]; ref Dawson 2012): +VE
In vivo DILI ([1]; ref Garside 2014): +VE
In vivo DILI ([1]; ref Gustafsson 2014): +VE
In vivo DILI ([1]; ref Porceddu 2012): +VE
In vivo DILI ([1]; ref Proctor 2017): +VE
In vivo DILI ([1]; ref Tolosa 2012): +VE
In vivo DILI ([1]; ref Vorrink 2018): +VE
In vivo DILI ([1]; ref Williams 2019): +VE
In vivo DILI ([1]; ref Xu 2008): +VE
HepaRG <25x Avg Cmax ATP (HepaRG spheroids; HepaRG, ATP endpoint, cut-off <25x Avg Cmax): +ve
HepaRG <100x Avg Cmaxu ATP (HepaRG spheroids; HepaRG, ATP endpoint, cut-off <100x Avg Cmaxu): -ve
HepaRG <25x Avg Cmax HCS (HepaRG spheroids; HepaRG, HCS endpoints, cut-off <25x Avg Cmax): +ve
HepaRG <100x Avg Cmaxu HCS (HepaRG spheroids; HepaRG, HCS endpoints, cut-off <100x Avg Cmaxu): -ve
HepaRG <25x Avg Cmax All (HepaRG spheroids; HepaRG, all endpoints (ATP and HCS), cut-off <25x Avg Cmax): +ve
HepaRG Cmax max All (HepaRG spheroids; HepaRG, all endpoints, Cmax max used): +ve
HepaRG Cmax min All (HepaRG spheroids; HepaRG, all endpoints, Cmax min used): +ve
HepaRG <10 uM All (HepaRG spheroids; HepaRG, all endpoints, cut-off <10 uM): -ve
HepaRG <100x Avg Cmaxu All (HepaRG spheroids; HepaRG, all endpoints, cut-off <100x Avg Cmaxu): -ve
AC50 (HepaRG spheroids; HepaRG, read-out: ATP endpoint AC50): 56 µM
AC50 (HepaRG spheroids; HepaRG, read-out: HCS endpoint AC50): 60.8 µM
DILI prediction HepaRG spheroids (HCS-MEC) (HepaRG spheroids; [12]): +VE (MEC < 25 × Cmax.tot cut-off)
fu [2]: 0.020
Inhibition of rBsep cutoff<1& cmax u>.2 (rBsep): +VE
Inhibition of rBsep cutoff<3 (rBsep): +VE
Human plasma Cmax,u [3]: 0.161 µM
hLiMTs ATP <20 x Cmax (PHH spheroids; In vitro Assay, ref Vorrink 2018): +VE (IC20 < 20 × Cmax.tot cut-off)
DILI in vitro assay prediction, Vorrink (2018) (PHH spheroids; PHH spheroids, ATP, 14 days, IC20 < 20 × Cmax.tot, ref Vorrink et al. 2018): +VE (IC20 < 20 × Cmax.tot cut-off)
Cmax [4]: 8.07 µM
THLE-Null [5]: +VE
AC50 (hLiMTs [6]; read-out: ATP endpoint AC50): 10.7 µM
AC50 (hLiMTs [6]; read-out: HCS endpoint AC50): 115 µM
DILI prediction hLiMTs (HCS-MEC) (hLiMTs [6]; [12]): +VE (MEC < 25 × Cmax.tot cut-off)
hLiMTs <25x Avg Cmax ATP (hLiMTs [6]; hLiMTs, ATP endpoint, cut-off <25x Avg Cmax): +ve
hLiMTs <100x Avg Cmaxu ATP (hLiMTs [6]; hLiMTs, ATP endpoint, cut-off <100x Avg Cmaxu): +ve (<100x Avg Cmaxu)
hLiMTs <25x Avg Cmax HCS (hLiMTs [6]; hLiMTs, HCS endpoints, cut-off <25x Avg Cmax): +ve
hLiMTs <100x Avg Cmaxu HCS (hLiMTs [6]; hLiMTs, HCS endpoints, cut-off <100x Avg Cmaxu): -ve
hLiMTs <25x Avg Cmax All (hLiMTs [6]; hLiMTs, all endpoints (ATP and HCS), cut-off <25x Avg Cmax): +ve
hLiMTs Cmax max All (hLiMTs [6]; hLiMTs, all endpoints, Cmax max used): +ve
hLiMTs Cmax min All (hLiMTs [6]; hLiMTs, all endpoints, Cmax min used): +ve
hLiMTs <10 uM All (hLiMTs [6]; hLiMTs, all endpoints, cut-off <10 uM): +ve (<10 uM)
hLiMTs <100x Avg Cmaxu All (hLiMTs [6]; hLiMTs, all endpoints, cut-off <100x Avg Cmaxu): +ve (<100x Avg Cmaxu)
in vitro data EC2<=1x Cmax [7]: +VE
in vitro data EC20<=2uM [7]: +VE
Bayesian Machine Learning DILI prediction, Williams (2019) ([8]; Bayesian modeling, ref Williams et al. 2019): +VE
Bayesian Machine Learning ([8]; In vitro Assay, ref Williams 2019): +VE
DILI severity category (Chen et al. [2016]) ([9]; LTKB DILIrank category, ref Chen et al. 2016): Most
DILI severity category ([9]; human DILI severity, ref Chen et al.): Most
DILI +VE (5-8), DILI -VE (-4) ([9]; ref Chen 2016): +VE
DILI severity category ([9]; ref Chen 2016): vMost-DILI-Concern
Structural based (HCI) (HepG2 cells; In vitro Assay, ref Tolosa 2012): +VE
DILI in vitro assay prediction, Tolosa (2012) (HepG2 cells; Structural based (HCI), HepG2, ref Tolosa et al. 2012): +VE
hLiMTs ATP <100uM (hLiMTs [10]; [11]): +VE (IC50 threshold of 100 µM)
hLiMTs/100uM, Proctor (2017) (hLiMTs [10]; hLiMTs, ATP, IC50 threshold 100 µM, ref Proctor et al. 2017): -VE
